Source: US11014955B2, “Cyclic peroxides as prodrugs for selective delivery of agents” (THE REGENTS OF THE UNIVERSITY OF CALIFORNIA, priority 2014, dated 2021)

Test system: P. falc FCB
Assay: Biological activity EC50, P. falc FCB
Assay type: cell-based
Settings: Plasmodium falciparum; Target (Cell Line): P. falc FCB

EC50	SMILES
17.9 nM	CN(C)c1cccc2c(S(=O)(=O)OC34CC5CC(C3)C3(OOC6(CCCCC6)O3)C(C5)C4)cccc12 (centres unmarked) [Example 18, dispiro[adamantane-2,2′-[1,3,5]trioxolane-4′,1″-cyclohexane]-7-yl 5-(dimethylamino)naphthalene-1-sulfonate]
14.6 nM	CN(C)c1cccc2c(S(=O)(=O)NCCCNC3CCC4(CC3)OOC3(O4)C4CC5CC(C4)CC3C5)cccc12 (centres unmarked) [Example 19, 5-(dimethylamino)-N-[3-({dispiro[adamantane-2,2′-[1,3,5]trioxolane-4′,1″-cyclohexane]-4″-yl}amino)propyl]naphthalene-1-sulfonamide]
